Reference: patent US4341779A, “Esters of amidinepenicillins” (priority 1978, dated 1982)
Counter-ions that a name gives are not always drawn. Like-named read-outs stand apart in the source and are kept apart here.

Assays:
[1] = rat, in vivo
arterial pressure = assay: effect onto the arterial pressure of experimental animals; assay type: in vivo; settings: on the contrary to Pivmecillinam
mice = assay: LD50 after administration per os in mice
[2] = comparative levels of 6-/N,N-1',6'-hexyleneformamidine/-penicillanic acid in blood serum, livers, lungs and kidneys of rats after per os administration (Table 2); assay type: in vivo
Source text: The results of the measurements, expressed in μg/ml are specified in Table 2.

[3] = levels of free acid in serum and organs of rats after per os administration of the aminopropyl dihydrochloride; assay type: in vivo
[4] = LD50 after administration per os in mice; settings: mouse, in vivo, po, LD50, mice, per os
in vivo = settings: mouse, po

| Compound | effect onto the arterial pressure (arterial pressure) | level of free acid in blood serum ([1]; 5 min) [ng/mL] | level of free acid in blood serum ([1]; 10 min) [ng/mL] | level of free acid in blood serum ([1]; 15 min) [ng/mL] | level of free acid in blood serum ([1]; 30 min) [ng/mL] | level of free acid in blood serum ([1]; 45 min) [ng/mL] | level of free acid in blood serum ([1]; 60 min) [ng/mL] | level of free acid in blood serum ([1]; 120 min) [ng/mL] | level of free acid in blood serum ([1]; 180 min) [ng/mL] | level of free acid in blood serum ([1]; 240 min) [ng/mL] | level of free acid in blood serum ([1]; 300 min) [ng/mL] | level of free acid in blood serum ([1]; 360 min) [ng/mL] | other results |
| --- | --- | --- | --- | --- | --- | --- | --- | --- | --- | --- | --- | --- | --- |
| CC1(C)S[C@@H]2[C@H](N=CN3CCCCCC3)C(=O)N2[C@H]1C(=O)O [6-/N,N-1', 6'-hexyleneformamidine/-penicillanic acid, reference compound] | – | – | – | – | – | – | – | – | – | – | – | – | level of free acid in blood serum ([1]; po, 5 min): 300 ng/mL; level of free acid in blood serum ([1]; po, 10 min): 900 ng/mL; level of free acid in blood serum ([1]; po, 0.25 h): 1700 ng/mL; level of free acid in blood serum ([1]; po, 0.5 h): 1800 ng/mL; level of free acid in blood serum ([1]; po, 0.75 h): 1900 ng/mL; level of free acid in blood serum ([1]; po, 1 h): 1900 ng/mL; level of free acid in blood serum ([1]; po, 2 h): 1600 ng/mL; level of free acid in blood serum ([1]; po, 3 h): 1300 ng/mL; level of free acid in blood serum ([1]; po, 4 h): 800 ng/mL; level of free acid in blood serum ([1]; po, 5 h): 600 ng/mL; level of free acid in blood serum ([1]; po, 6 h): 500 ng/mL |
| CC(=O)COC(=O)[C@@H]1N2C(=O)[C@@H](N=CN3CCCCCC3)[C@H]2SC1(C)C [Methylacetic ester of 6-N,N-1', 6'-hexyleneformamidine/-peni] [methylacetic ester of 6-/N,N-1', 6'-hexyleneformamidine/-penicillanic acid] | no effect | 29300 | 35000 | 42700 | 21100 | 21200 | 16900 | 4900 | 1600 | 800 | 600 | 300 | toxicity compared with Pivascillinam (mice; compared with Pivascillinam): toxicity lower than that of Pivascillinam; levels of free acid in the serum, comparison of preparations [1]: highest levels; maximum serum level relative to equivalent dose of Pivmecillinam [1]: over two times higher; maximum serum level relative to equivalent dose of corresponding free acid [1]: over twenty times higher; maximum level in kidneys relative to equivalent dose of Pivmecillinam ([2]; kidneys): three times; maximum level in the liver relative to equivalent dose of Pivmecillinam ([2]; liver): over two times higher; maximum levels in the lungs, ester and Pivmecillinam compared ([2]; lungs, equivalent doses): approximate ones |
| CC(=O)COC(=O)[C@@H]1N2C(=O)[C@@H](N=CN3CCC(CCCN)CC3)[C@H]2SC1(C)C [dihydrochloride of ester methylacetic of 6-{N,N-[3'-(γ-aminopropyl)-1',5'-pentileneformamidine]}-penicillanicacid] | – | – | – | – | – | – | – | – | – | – | – | – | levels of free acid in serum and organs relative to equivalent dose of corresponding free acid [3]: multiply higher |
| CC(=O)COC(=O)[C@@H]1N2C(=O)[C@@H](N=CN3CCCCCC3)[C@H]2SC1(C)C [Hydrochloride of methylacetic ester of 6-/N,N1', 6'-hexylene] [hydrochloride of methylacetic ester of 6-/N, N-1', 6'-hexyleneformamidine/-penicillanic acid] | no effect | 12900 | 14300 | 16400 | 16100 | 18900 | 14400 | 9100 | 2100 | 1000 | 800 | 100 | LD50 (mice; mice, per os, listed as hydrochloride of said ester): over 5 g/kg of the body weight |
| CC(=O)COC(=O)[C@@H]1N2C(=O)[C@@H](N=CN3CCCCCC3)[C@H]2SC1(C)C [methylacetic ester of 6-/N,N-1', 6'-hexyleneformamidine/-penicillanic acid] | – | – | – | – | – | – | – | – | – | – | – | – | LD50 [4]: > 3000 mg/kg |
| CC(C)(C)C(=O)OCOC(=O)[C@@H]1N2C(=O)[C@@H](/N=C/N3CCCCCC3)[C@H]2SC1(C)C [Pivmecillinam, hydrochloride of pivaloyl-oxymethyl ester of 6-/N,N-1',6'-hecylaneformamidine/-penicillanicacid, reference compound] | – | 6300 | 12700 | 15500 | 19200 | 16300 | 14700 | 7900 | 2100 | 1800 | 1500 | 1100 | LD50 (in vivo): 2600 mg/kg |
